2 compounds from patent EP0330824A1, “Use of quinolizine and quinolizinone derivatives in the manufacture of medicaments for the treatment of cardiac arrhythmias” (MERRELL DOW PHARMACEUTICALS INC., priority 1988, dated 1989) can be followed below.

In experiment [1] the test system is Von Bezold-Jarisch Reflex induced by 5-HT. The experiment can be described thus: Von Bezold-Jarisch Reflex induced by intravenous 5-HT. The following applies: rat. In kind it is in vivo. From the text: The activity of these compounds against 5-HT can be assessed in vivo by measurement of the effect of the compound on the Von Bezold-Jarisch Reflex induced by 5-HT injected intravenously into the rat (see Paintal A.S., Physiol. Rev. 53, 159-227, 1973; J.R. Fozard, Naunyn-Schmiedeberg's Arch. Pharmacol., 326, 1984, 36-44). The transient cardiac slowing arises from an increased afferent vagus activity arising from stimulation by 5-HT of sensory afferent fibers in and around the heart.

Experiment [2] has as its system action potential of isolated cardiac tissue. The experiment can be described thus: Action potential of isolated cardiac tissue (Purkinje fiber or papillary muscle). Also noted: species or system dog or guinea pig. The following applies: 10⁻⁸ to 10⁻⁵ moles/liter in tissue bath, stimulation at 1 Hz. From the text: A gas mixture comprised of 95% O₂ and 5% CO₂ is bubbled through the solution while it is maintained within a pH range of from 7.3-7.4.
The heart of an anesthetized mongrel dog is surgically removed and the Purkinje fibers are dissected from either of the ventricles. Alternately, papillary muscles are removed from the right cardiac ventricle of a guinea pig. A Purkinje fiber or a papillary muscle is then placed in a tissue bath which is continuously perfused with modified Tyrode's solution.¹
The electrophysiology of the cardiac tissue is monitored by conventional glass microelectrodes. One microelectrode is inserted into a cell in the cardiac muscle fiber and a ground electrode is positioned in the tissue bath. A conventional oscilloscope is utilized to visualize the action potential waveforms of the cardiac cell. […]
At this point, representative control action potentials are recorded and analyzed by a computer.
After establishing a control action potential, the test compound is introduced into the Modified Tyrode's solution in a quantity such that the test compound is present within the tissue bath in a range of from 10⁻⁸ to 10⁻⁵ moles/liter. After the effect of the test compound has reached a steady state, the action potential is again recorded and analyzed in the manner described above.

Counter-ions that a name gives are not always drawn.

Regarding `O=C(OC1CC2CC3CC(C1)N2CC3=O)c1c[nH]c2ccccc12` (stereo not drawn) [endo-hexahydro-8-(3-indolylcarbonyloxy)-2,6-methano-2H-quinolizin-3(4H)-one hydrochloride], the “suppression of the Von Bezold-Jarisch Reflex response” value in experiment [1] (0.01-0.1 mg/kg given intravenously) and in experiment [1] (0.25-1 mg/kg given orally) was “suppressed the response dose-dependently” throughout. Consider `O=C(OC1CC2CC3CC(C1)N2CC3=O)c1c[nH]c2ccccc12` (stereo not drawn) [endo-hexahydro-8-(3-indolylcarbonyloxy)-2,6-methano-2H-quinolizin-3(4H)-one], for which the “rate of maximal depolarization of the action potential” value in experiment [2] was “capable of delaying the rate of maximal depolarization of the action potential”.
